According to patent US11124496B2, “Imidazolidine compounds” (Eli Lilly and Company, priority 2017, dated 2021):

What was measured:
[1] = biological target: recombinant human ASK1 (hASK1) catalytic domain (Homo sapiens (Human), UniProt Q99683); test: ASK1 enzymatic assay (ADP-Glo Kinase Assay); assay type: biochemical; conditions: for IC50: hASK1 0.25 nM, MKK6 300 nM, ATP 100 uM, Mean±Standard Deviation; for Efficacy (%): hASK1 enzymatic assay, standard ASK1 inhibitor = 100% inhibition, DMSO vehicle = 0%
Sequence of recombinant human ASK1 (hASK1) catalytic domain (Q99683 680-938): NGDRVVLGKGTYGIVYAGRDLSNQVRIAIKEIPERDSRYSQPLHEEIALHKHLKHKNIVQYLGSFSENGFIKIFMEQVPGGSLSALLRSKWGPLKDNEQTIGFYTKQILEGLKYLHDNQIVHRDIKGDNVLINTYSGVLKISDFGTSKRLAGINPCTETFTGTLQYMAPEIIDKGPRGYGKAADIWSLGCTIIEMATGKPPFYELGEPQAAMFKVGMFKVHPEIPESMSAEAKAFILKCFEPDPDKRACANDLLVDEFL
From the text: ASK1 Inhibitor Effect Determined by ASK1 Enzymatic Assay
The purpose of this assay is to determine the effect of ASK1 inhibitors on the production of ADP by ASK1. The recombinant human ASK1 (hASK1) catalytic domain tagged with Glutathione S-transferase is used, and histidine-tagged full-length human MAP kinase kinase 6 (MKK6) and ATP are the substrate and cofactor, respectively.
The assay is done using an ADP-Glo™ Kinase Assay Kit (Promega, Catalog #V9102) according to the manufacturer's protocol with the following modifications. Briefly, hASK1 (0.25 nM) and MKK6 (300 nM) in a buffer (10 mM MOPS pH 7.0; 10 mM Mg-Acetate; 1 mM DTT; 0.025% NP-40; 0.05% BSA; 1.5% glycerol) are incubated with ASK1 inhibitors at varying concentrations ranging from 10.00 uM to 0.17 nM for 15 minutes, followed by incubation with ATP (100 uM) for 30 minutes at room temperature. ADP-Glo™ Reagent is added to terminate the kinase reaction and deplete the remaining ATP. The Kinase Detection Reagent is then added to convert ADP to ATP. The newly synthesized ATP is measured using a luciferase/luciferin reaction, and the luminescence determined by Envision (PerkinElmer). The luminescence intensities are analyzed by GeneData, and fit to a 4 parameter dose response-inhibitor logistics curve to determine IC50 values, using the effects of 5-(4-cyclopropyl-1H-imidazol-1-yl)-2-fluoro-4-methyl-N-{6-[4-(propan-2-yl)-4H-1,2,4-triazol-3-yl]pyridin-2-yl}benzamide as a standard and DMSO vehicle for 100% and 0% inhibition, respectively.

human ASK1 = human ASK1 (Homo sapiens (Human), UniProt Q99683); test: ASK1 autophosphorylation (Thr838) assay in HEK293 cells overexpressing human ASK1; assay type: cell-based; conditions: for IC50: H2O2-stimulated (1 mM, 10 minutes) ASK1 autophosphorylation at Thr838, HEK293 cells, Mean±Standard Deviation, read-out: HEK pASK1 IC50; for Efficacy (%): HEK pASK1 assay, standard ASK1 inhibitor = 100% inhibition, DMSO vehicle = 0%
Sequence of human ASK1 (Q99683 whole entry): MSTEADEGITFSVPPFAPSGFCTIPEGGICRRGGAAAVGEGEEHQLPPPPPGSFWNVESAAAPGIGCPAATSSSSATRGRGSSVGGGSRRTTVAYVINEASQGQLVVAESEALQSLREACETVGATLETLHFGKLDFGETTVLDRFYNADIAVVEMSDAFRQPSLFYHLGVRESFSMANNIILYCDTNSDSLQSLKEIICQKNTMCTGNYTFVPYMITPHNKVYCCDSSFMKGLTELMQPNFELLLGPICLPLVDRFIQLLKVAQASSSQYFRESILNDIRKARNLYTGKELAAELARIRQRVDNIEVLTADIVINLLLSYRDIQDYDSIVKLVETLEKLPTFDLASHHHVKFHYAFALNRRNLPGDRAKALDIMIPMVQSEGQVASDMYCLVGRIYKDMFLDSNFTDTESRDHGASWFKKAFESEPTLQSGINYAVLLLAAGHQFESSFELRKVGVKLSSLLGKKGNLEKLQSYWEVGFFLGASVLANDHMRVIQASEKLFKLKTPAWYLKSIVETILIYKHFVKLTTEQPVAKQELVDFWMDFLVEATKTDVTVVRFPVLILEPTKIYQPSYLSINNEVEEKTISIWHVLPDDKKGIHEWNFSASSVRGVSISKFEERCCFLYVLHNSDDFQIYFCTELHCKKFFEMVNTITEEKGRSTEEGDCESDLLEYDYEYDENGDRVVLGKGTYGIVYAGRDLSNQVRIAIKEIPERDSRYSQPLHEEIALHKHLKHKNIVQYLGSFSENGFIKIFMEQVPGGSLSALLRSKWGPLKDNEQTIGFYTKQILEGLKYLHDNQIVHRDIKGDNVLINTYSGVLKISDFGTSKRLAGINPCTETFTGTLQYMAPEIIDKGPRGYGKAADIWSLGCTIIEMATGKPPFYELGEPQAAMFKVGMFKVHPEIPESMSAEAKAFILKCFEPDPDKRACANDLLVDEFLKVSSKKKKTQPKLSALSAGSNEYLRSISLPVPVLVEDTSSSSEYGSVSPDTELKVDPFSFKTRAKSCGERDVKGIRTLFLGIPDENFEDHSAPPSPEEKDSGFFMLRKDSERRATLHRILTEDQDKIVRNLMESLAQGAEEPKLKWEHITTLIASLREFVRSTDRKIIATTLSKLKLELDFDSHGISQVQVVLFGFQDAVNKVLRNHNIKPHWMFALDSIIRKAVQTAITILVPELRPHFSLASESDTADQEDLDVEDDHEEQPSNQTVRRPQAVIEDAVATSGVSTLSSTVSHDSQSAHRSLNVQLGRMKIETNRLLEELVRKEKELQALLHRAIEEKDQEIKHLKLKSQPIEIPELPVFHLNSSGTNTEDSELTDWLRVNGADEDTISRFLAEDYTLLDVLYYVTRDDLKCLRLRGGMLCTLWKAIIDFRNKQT

SMILES	IC50 [1] [nM]	Efficacy (%) [1] [%]	IC50 (human ASK1) [nM]	Efficacy (%) (human ASK1)
CC(C)n1cnnc1-c1cccc(N2CCN(CCc3cccnc3)C2=O)n1 [Example 1, 1-[6-(4-Isopropyl-1,2,4-triazol-3-yl)-2-pyridyl]-3-[2-(3-pyridyl)ethyl]imidazolidin-2-one]	36 ± 6.25	100	1400	80.5
CC(C)n1cnnc1-c1cccc(N2CCN([C@H](C)Cn3cnc(C4CC4)c3)C2=O)n1 [Example 2, 1-[(1R)-2-(4-Cyclopropylimidazol-1-yl)-1-methyl-ethyl]-3-[6-(4-isopropyl-1,2,4-triazol-3-yl)-2-pyridyl]imidazolidin-2-one]	14 ± 2.61	100	886 ± 65.4	96.0
CC(C)n1cnnc1-c1cccc(N2CCN(CCn3cnc(C4CC4)c3)C2=O)n1 [Example 3, 1-[2-(4-Cyclopropylimidazol-1-yl)ethyl]-3-[6-(4-isopropyl-1,2,4-triazol-3-yl)-2-pyridyl]imidazolidin-2-one]	10.8 ± 2.01	100	1130 ± 300	101
CC(C)n1cnnc1-c1cccc(N2CCN(CCc3cnc(C4CC4)nc3)C2=O)n1 [Example 4, 1-[2-(2-Cyclopropylpyrimidin-5-yl)ethyl]-3-[6-(4-isopropyl-1,2,4-triazol-3-yl)-2-pyridyl]imidazolidin-2-one]	13.7 ± 6.57	100	735	107
CC(C)n1cnnc1-c1cccc(N2CCNC2=O)n1 [Example 5, 1-(6-(4-Isopropyl-4H-1,2,4-triazol-3-yl)pyridin-2-yl)imidazolidin-2-one]	64.4 ± 58.5	100	3770	100
Cc1ncc(CCN2CCN(c3cccc(-c4nncn4C(C)C)n3)C2=O)cn1 [Example 6, 1-[6-(4-Isopropyl-1,2,4-triazol-3-yl)-2-pyridyl]-3-[2-(2-methylpyrimidin-5-yl)ethyl]imidazolidin-2-one]	88.3 ± 21.8	100	–	–
Cc1ccc(CCN2CCN(c3cccc(-c4nncn4C(C)C)n3)C2=O)cn1 [Example 7, 1-[6-(4-Isopropyl-1,2,4-triazol-3-yl)-2-pyridyl]-3-[2-(6-methyl-3-pyridyl)ethyl]imidazolidin-2-one]	16.6 ± 3.16	100	520	100
